Laboratory results reported in EPA's ToxRefDB 2.

What was measured:
mouse [1] = conditions: Multigenerational reproductive toxicity study, cd1, Oral, Feed, dose end: 2 generation
rat [2] = conditions: Subchronic oral toxicity in rodents, fischer, Feed, dose end: 13 week, group: systemic
mouse [3] = conditions: Carcinogenicity, b6c3f1, Oral, Feed, dose end: 103 week, group: systemic
rat [4] = conditions: Sub-acute repeat dose toxicity, fischer, Oral, Feed, dose end: 14 day, group: systemic
rat [5] = conditions: Carcinogenicity, fischer, Oral, Feed, dose end: 103 week, group: systemic
mouse [6] = conditions: Subchronic oral toxicity in rodents, b6c3f1, Feed, dose end: 13 week, group: systemic
rat [7] = conditions: Carcinogenicity, fischer, Oral, Water, dose end: 104 week, group: systemic
mouse [8] = conditions: Carcinogenicity; other; Injection; Intraperitoneal; dose end: 50 week; group: systemic; systemic / pathology microscopic / lung / adenoma + systemic / pathology microscopic / lymph node / leukemia granulocytic + systemic / …
rat [9] = conditions: Carcinogenicity, fischer, Oral, Gavage/Intubation, dose end: 2 year, group: systemic
mouse [10] = conditions: Subchronic oral toxicity in rodents, b6c3f1, Gavage/Intubation, dose end: 20 week, group: systemic, systemic / pathology microscopic / liver / hyperplasia + systemic / pathology microscopic / stomach / hyperkeratosis + systemic / pathology …
rat [11] = conditions: Subchronic oral toxicity in rodents, fischer, Gavage/Intubation, dose end: 24 week, group: systemic
rat [12] = conditions: Combined chronic toxicity/carcinogenicity; sprague dawley; Oral; Gavage/Intubation; dose end: 52 week; group: systemic; systemic / pathology microscopic / stomach / [other] + systemic / pathology microscopic / stomach / carcinoma + systemic / pathology …
mouse [13] = conditions: Carcinogenicity; b6c3f1; Oral; Gavage/Intubation; dose end: 2 year; group: systemic; systemic / pathology microscopic / stomach / carcinoma + systemic / pathology microscopic / stomach / papilloma + systemic / in life …
[14] = group: offspring, systemic / in life observation / body weight / offspring (pup) weight
[15] = group: parental, systemic / in life observation / body weight / body weight + systemic / organ weight / brain / relative to body weight + systemic / organ …
[16] = group: reproductive, reproductive / offspring survival early / birth index / birth index + reproductive / offspring survival early / live fetuses / live fetuses
[17] = systemic / organ weight / kidney / relative to body weight + systemic / organ weight / liver / relative to body weight
[18] = systemic / in life observation / body weight / body weight + systemic / pathology microscopic / thyroid gland / hyperplasia
[19] = systemic / in life observation / food consumption / food consumption
[20] = systemic / in life observation / food consumption / food consumption + systemic / in life observation / body weight / body weight
[21] = systemic / pathology microscopic / kidney / nephropathy
[22] = systemic / pathology microscopic / kidney / nephropathy + systemic / pathology microscopic / kidney / hyperplasia + systemic / pathology …
[23] = systemic / in life observation / body weight / body weight + systemic / pathology microscopic / liver / mineralization + systemic / …
[24] = systemic / in life observation / body weight / body weight gain + systemic / in life observation / water consumption / water consumption + …
[25] = systemic / in life observation / water consumption / water consumption
[26] = systemic / pathology microscopic / blood / leukemia + systemic / pathology microscopic / stomach / carcinoma + systemic / pathology …
[27] = systemic / pathology microscopic / stomach / carcinoma + systemic / pathology microscopic / stomach / papilloma + systemic / pathology …
[28] = systemic / in life observation / body weight / body weight gain + systemic / in life observation / mortality / mortality + systemic / …

`CC(=O)Nc1ccc(O)cc1` [Acetaminophen] was tested, and the LEL (mouse [1]; [14]) was 357 mg/kg/day, the LOAEL (mouse [1]; [14]) was over 1430 mg/kg/day and the NEL (mouse [1]; [14]) was under 357 mg/kg/day. The NOAEL (mouse [1]; [14]) was at least 1430 mg/kg/day, the LEL (mouse [1]; [15]) was 1430 mg/kg/day and the LOAEL (mouse [1]; [15]) was over 1430 mg/kg/day. For the same molecule, the NEL (mouse [1]; [15]) was 715 mg/kg/day, the NOAEL (mouse [1]; [15]) was at least 1430 mg/kg/day and the NEL (mouse [1]; group: reproductive, reproductive / offspring survival early / birth index / birth index) was 715 mg/kg/day. For the same molecule, the LEL (mouse [1]; [16]) was 1430 mg/kg/day, the LOAEL (mouse [1]; [16]) was over 1430 mg/kg/day and the NOAEL (mouse [1]; [16]) was at least 1430 mg/kg/day. It also gave an NOAEL (rat [2]; systemic / in life observation / body weight / body weight + systemic / in life observation / clinical signs / reduced body size + systemic…) of 310 mg/kg/day, an LOAEL (rat [2]; systemic / in life observation / body weight / body weight + systemic / pathology microscopic / liver / cytomegaly + systemic / pathology …) of 625 mg/kg/day and an LEL (rat [2]; [17]) of 40 mg/kg/day. For the same molecule, the NEL (rat [2]; [17]) was under 40 mg/kg/day, the LOAEL (mouse [3]; systemic / in life observation / body weight / body weight) was 1000 mg/kg/day and the LEL (mouse [3]; [18]) was 90 mg/kg/day. It also gave an NEL (mouse [3]; [18]) of under 90 mg/kg/day, an NOAEL (mouse [3]; [18]) of 450 mg/kg/day and an NEL (rat [4]; [19]) of 310 mg/kg/day. For the same molecule, the NOAEL (rat [4]; [19]) was 310 mg/kg/day, the LEL (rat [4]; [20]) was 625 mg/kg/day and the LOAEL (rat [4]; [20]) was 625 mg/kg/day. For the same molecule, the LOAEL (rat [5]; [21]) was 30 mg/kg/day, the NOAEL (rat [5]; [21]) was under 30 mg/kg/day and the LEL (rat [5]; [22]) was 30 mg/kg/day. For the same molecule, the NEL (rat [5]; [22]) was under 30 mg/kg/day, the LOAEL (mouse [6]; [23]) was 1880 mg/kg/day and the NEL (mouse [6]; [23]) was 480 mg/kg/day. It also gave an NOAEL (mouse [6]; [23]) of 930 mg/kg/day and an LEL (mouse [6]; systemic / pathology microscopic / liver / cytomegaly + systemic / pathology microscopic / liver / karyomegaly + systemic / pathology …) of 930 mg/kg/day.
With `O=c1[nH]cc(F)c(=O)[nH]1` [5-Fluorouracil] the LOAEL (rat [7]; [24]) was over 7.42 mg/kg/day, the NOAEL (rat [7]; [24]) was at least 7.42 mg/kg/day and the LEL (rat [7]; [25]) was 3.85 mg/kg/day. It also gave an NEL (rat [7]; [25]) of under 3.85 mg/kg/day, an LEL (mouse [8]) of 30 mg/kg/day and an LOAEL (mouse [8]) of over 30 mg/kg/day. It also gave an NEL (mouse [8]) of under 30 mg/kg/day and an NOAEL (mouse [8]) of at least 30 mg/kg/day.
With `c1ccc(C2CO2)cc1` (stereo not given) [Styrene oxide] the LOAEL (rat [9]; [26]) was over 550 mg/kg/day, the NOAEL (rat [9]; [26]) was at least 550 mg/kg/day and the LEL (rat [9]; [27]) was 275 mg/kg/day. For the same molecule, the NEL (rat [9]; [27]) was under 275 mg/kg/day, the LEL (mouse [10]) was 900 mg/kg/day and the LOAEL (mouse [10]) was over 900 mg/kg/day. The NEL (mouse [10]) was 600 mg/kg/day, the NOAEL (mouse [10]) was at least 900 mg/kg/day and the LOAEL (rat [11]; [28]) was over 3000 mg/kg/day. It also gave an NEL (rat [11]; [28]) of 360 mg/kg/day, an NOAEL (rat [11]; [28]) of at least 3000 mg/kg/day and an LEL (rat [11]; systemic / pathology microscopic / liver / hyperplasia) of 750 mg/kg/day. It also gave an LEL (rat [12]) of 50 mg/kg/day, an LOAEL (rat [12]) of over 250 mg/kg/day and an NEL (rat [12]) of under 50 mg/kg/day. The NOAEL (rat [12]) was at least 250 mg/kg/day, the LEL (mouse [13]) was 375 mg/kg/day and the LOAEL (mouse [13]) was over 750 mg/kg/day. The NEL (mouse [13]) was under 375 mg/kg/day and the NOAEL (mouse [13]) was at least 750 mg/kg/day.
